Assays:
[1] = system: Sil-15 cells containing a RARE driving a lacZ reporter; test: X-Gal-based RA reporter assay (genomic response); format: cell-based; design: genomic response Emax (±95% CI): unit not given here; conditions: for genomic response Emax (±95% CI) / EC50: Sil-15 reporter cells; for genomic response Emax (±95% CI): absorbance at 650 nm; for genomic EC50 compared with ATRA / genomic E max compared with ATRA: nonoverlapping 95% CI; for EC50: read-out: genomic response EC50 (±95% CI), overnight, 10^–6 to 10^–14 M
Source text: Following chemical design and synthesis, the synthetic retinoid library was screened for genomic and nongenomic biological activities and compared to the response of the endogenous retinoid, ATRA. In these assays, the EC50 value represented the concentration of retinoid that gave half-maximal response (potency), while the E max value represented the maximum response achievable from the retinoid (efficacy).
The transcriptional genomic activity of the retinoids was quantified using Sil-15 cells containing a RARE driving a lacZ reporter. […] Twenty-two of the synthetic retinoids were effective in inducing genomic activity. […] In addition, the retinoids varied in their efficacies.
The Sil-15 cell line was used in the X-gal RA reporter assay described below. The cells were grown in Dulbecco’s modified Eagle’s medium (DMEM) containing 10% fetal bovine serum (FCS) (Invitrogen/Gibco), 0.6% penicillin-streptomycin (Gibco) and 0.8 mg/mL G418 sulfate (Sigma) for selection. They were maintained in a humidified atmosphere containing 5% CO2 at 37 °C. The medium was changed three times a week and the cells were passaged at 70% confluence using 0.05% trypsin-EDTA.
Sil-15 cells are F9 teratocarcinoma cells stably transfected with a plasmid containing the LacZ gene under the control of a DR5-type RA response element (RARE). The reporter cell line was used to detect the transcriptional genomic activity of ATRA and other retinoids by colorimetrically quantifying the insoluble blue product generated by β-galactosidase from X-gal during the assay. The assay was performed by plating 100,000 cells per well in the 0.1% gelatin-coated 96-well plates and leaving them to attach overnight. The ATRA/retinoids dilutions ranging from 10^–6 to 10^–14 M were incubated on the reporter cells overnight at 37 °C, in 5% CO2. A standard curve of ATRA was included in each experiment to ensure the reproducibility of the results between assays performed on different days. All the assays for ATRA as well as the retinoids were quantified in triplicate. Serial dilutions of retinoids were prepared from a stock solution under red/orange light. The stock solutions prepared in DMSO for each retinoid varied depending on the solubility of each compound. Each stock was stored at −20 °C and protected from light. The next day, Sil-15 cells were washed with PBS, fixed with 1% glutaraldehyde and 1 mM MgCl2 solution for 15 min, and developed in X-gal developing solution (0.2% X-Gal, 1 mM MgCl2, 3.3 mM potassium ferricyanide and 3.3 mM potassium ferrocyanide in PBS). The plates were read on an E max microplate reader (Molecular Devices) at 650 nm.
(§1) All data are presented as mean ± SEM of three independent experiments with biological triplicates. Statistical analyses were performed in Microsoft Office Excel 2019 or GraphPad Prism 7.0c version (Prism, GraphPad Software, San Diego, CA). Neurite outgrowth data were analyzed by one-way ANOVA with Newman-Keuls multiple comparison test as appropriate; P value <0.05 was considered statistically significant. *P < 0.05, **P < 0.01. Data for X-Gal and ERK1/2 phosphorylation were analyzed using sigmoidal dose–response analysis of log (agonist) versus response curve (stimulation).

[2] = system: ERK1/2 phosphorylation in SH-SY5Y cells; test: ERK1/2 phosphorylation (nongenomic response), AlphaScreen SureFire; format: cell-based, human; design: nongenomic response Emax (±95% CI): unit not given here; conditions: for EC50: Homo sapiens, read-out: nongenomic response EC50 (±95% CI); for nongenomic E max compared with ATRA: nonoverlapping 95% CI
Description: After screening the retinoids for genomic responses, they were tested for their nongenomic ability to rapidly phosphorylate ERK1/2 in the SH-SY5Y cell line. ATRA is known as a potent activator of ERK1/2 − and was used as the standard for comparison. […] The efficacies of the remaining seven retinoids were similar to ATRA.
SH-SY5Y cell line as used in ERK phosphorylation and neurite outgrowth assays described below. The cells were grown in DMEM containing 10% FCS at 37 °C with 5% CO2. The medium was changed three times a week and the cells were passaged at 70% confluence using 0.05% trypsin-EDTA.
To quantify ERK1/2 phosphorylation, SH-SY5Y cells (100,000 cells/well) were plated onto 96-well plates and serum-starved for 24 h in DMEM. Cells were assayed in serum-free DMEM and stimulated for 60 min at 37 °C in a humidified atmosphere. Retinoids were tested at concentrations ranging from 10 to 4 to 10–11 M and at a final concentration of 0.1% DMSO. At the end of the assay, the medium was removed, and cells were lysed with lysis buffer supplied in the AlphaScreen SureFire ERK1/2 kit (PerkinElmer). The assay was performed in 384-well white Proxiplates according to the manufacturer’s instructions and using the beads supplied in the protein A general IgG detection kit (PerkinElmer). Briefly, 4 μL samples were incubated with 7 μL of the freshly prepared mixture containing donor and acceptor beads. Plates were incubated at room temperature and read with the Envision system (PerkinElmer Life Sciences) using AlphaScreen settings.
as §1

Structure (SMILES) | genomic response Emax (±95% CI) [1] | genomic EC50 compared with ATRA [1] | EC50 [1] [nM] | EC50 ([2]; SH-SY5Y cells, 1 h) [nM] | nongenomic response Emax (±95% CI) ([2]; SH-SY5Y cells, 1 h) | nongenomic E max compared with ATRA [2] | induction of ERK1/2 phosphorylation (nongenomic activity) ([2]; SH-SY5Y cells, 1 h) | genomic E max compared with ATRA [1] | nongenomic response EC50 (±95% CI) ([2]; SH-SY5Y cells, 1 h)
COc1cc2c(cc1C#Cc1ncc(C(=O)O)cn1)C(C)(C)CCC2(C)C [Compound 29, 2-[2-(3-Methoxy-5,5,8,8-tetramethyl-5,6,7,8-tetrahydronaphthalen-2-yl)ethynyl]pyrimidine-5-carboxylic Acid] | 266 (±110) | significantly higher EC50 values than ATRA | 603 | 87.4 | 37.5 (±2.12) | E max values significantly lower than ATRA | – | – | –
CC1(C)CCC(C)(C)c2nc(C#Cc3ccc(C(=O)O)cc3)cnc21 [Compound 30, 4-[2-(5,5,8,8-Tetramethyl-5,6,7,8-tetrahydroquinoxalin-2-yl)ethynyl]benzoic Acid] | – | significantly lower EC50 than ATRA | – | 8.54 | 91.6 (±3.21) | E max values significantly higher than ATRA | showed activity toward the nongenomic pathway | – | –
CC1(C)CCC(C)(C)c2nc(C#Cc3ccc(C(=O)O)cc3F)cnc21 [Compound 31, 3-Fluoro-4-[2-(5,5,8,8-tetramethyl-5,6,7,8-tetrahydroquinoxalin-2-yl)ethynyl]benzoic Acid] | – | significantly lower EC50 than ATRA | 0.382 | 58.4 | 91.6 (±3.84) | E max values significantly higher than ATRA | – | – | –
Cc1sc(-c2ccc(C(=O)O)cc2)nc1-c1cnc2c(n1)C(C)(C)CCC2(C)C [Compound 40, 4-[5-Methyl-4-(5,5,8,8-tetramethyl-5,6,7,8-tetrahydroquinoxalin-2-yl)-1,3-thiazol-2-yl]benzoic Acid] | 181 (±7.45) | significantly lower EC50 than ATRA | 0.00232 | 0.0532 | 40.7 (±1.02) | E max values significantly lower than ATRA | – | significantly higher E max than ATRA | –
Cc1sc(-c2ccc(C(=O)O)cn2)nc1-c1cnc2c(n1)C(C)(C)CCC2(C)C [Compound 41, 6-[5-Methyl-4-(5,5,8,8-tetramethyl-5,6,7,8-tetrahydroquinoxalin-2-yl)-1,3-thiazol-2-yl]pyridine-3-carboxylic Acid] | 144 (±16.5) | significantly higher EC50 values than ATRA | 16.9 | 15.4 | 55.26 (±0.00) | E max values significantly higher than ATRA | – | significantly lower E max than ATRA | –
Cc1sc(-c2ccc(C(=O)O)c(F)c2)nc1-c1cnc2c(n1)C(C)(C)CCC2(C)C [Compound 42, 2-Fluoro-4-[5-methyl-4-(5,5,8,8-tetramethyl-5,6,7,8-tetrahydroquinoxalin-2-yl)-1,3-thiazol-2-yl]benzoic Acid] | – | significantly lower EC50 than ATRA | 0.0155 | 12.5 | 54.1 (±4.07) | – | – | significantly higher E max than ATRA | –
Cc1sc(-c2ccc(C(=O)O)cc2F)nc1-c1cnc2c(n1)C(C)(C)CCC2(C)C [Compound 43, 3-Fluoro-4-[5-methyl-4-(5,5,8,8-tetramethyl-5,6,7,8-tetrahydroquinoxalin-2-yl)-1,3-thiazol-2-yl]benzoic Acid] | 195 (±35.2) | – | 1.64 | – | no response | – | lacked nongenomic activity | significantly higher E max than ATRA | no response
Cc1sc(-c2ccc(C(=O)O)cc2)nc1-c1ccc2c(c1)C(C)(C)CCC2(C)C [GZ25, reference compound] | 209 (±15.5) | significantly lower EC50 than ATRA | 0.184 | 3.57 | 76.6 (±2.61) | E max values significantly higher than ATRA | – | significantly higher E max than ATRA | –
